According to patent US8889699B2, “5-fluorouracil derivative” (Delta-Fly Pharma, Inc., priority 2009, dated 2014):
Read-outs that look alike come from different tables or passages of the source.

Key:
[1] = system: sarcoma 180 cells; experiment: Inhibition of intracellular phosphorylation of 5-FU in cancer cells; type: cell-based, mouse; conditions: for inhibition at 10 µM / inhibition at 100 µM: Mus musculus, Sarcoma-180, 0.5 h
Procedure: (§1) • (a) Test liquid preparation 1: Compound I-2 or I-10 of the present invention was dissolved to a concentration of 1 mM in cold physiological saline. The resulting product was further diluted 10-fold with physiological saline, yielding a 100-μM solution. • (b) Test liquid preparation 2: As an OPRT inhibitor, which inhibits the phosphorylation of 5-FU, citrazinic acid (Citra.A.) was dissolved to a concentration of 1 mM in cold physiological saline, and further diluted 10-fold with physiological saline, yielding a 100-μM solution. • (c) Preparation of cancer cell suspension: Ascites-type sarcoma 180 cells were preliminarily transplanted intraperitoneally into an ICR mouse and proliferated therein for use in the test as raw (intact) cells. The proliferated cells were isolated and then washed with physiological saline. […] Immediately after the completion of the reaction, 4 mL of a cold Hanks solution was added to the reaction solution, and the cells were washed and separated by centrifugation. After this procedure was repeated twice, 2 mL of a cold 5% trichloroacetic acid (TCA) solution was added to the cell pellet to disrupt the cells, and 5-FU and its nucleotide metabolites were extracted. Subsequently, a portion of the nucleic acid extract was applied to a silica gel 60F254 plate and developed with a mixed liquid comprising chloroform-methanol-acetic acid (17:3:1) to isolate the nucleotide moiety. The radioactivity thereof was measured and the concentration of 5-FU phosphorylation was measured.
as §1, with “1: Compounds I-9, I-11, I-12, and I-13” for “1: Compound I-2 or I-10”, “invention were separately” for “invention was”, “saline. Each of the” for “saline. The”, “resulting products” for “resulting product”, “acid” for “acid (Citra.A.)”

[2] = system: human gastric cancer strain (SC-2); conditions: 14 days, day 15; for Average weight change (%) / Tumor proliferation inhibition ratio (%): Test Example 3; for BWC (% initial) / IR (%): Test Example 6
Procedure: The resulting product was stirred with a stirrer at room temperature for about 10 minutes. […] Thereafter, ultrasonic treatment was performed under ice cooling for about 5 minutes, thereby obtaining a BOF-A2 drug liquid to be used at a dose of 14 mg/kg/day, 21 mg/kg/day, or 28 mg/kg/day. • (f) Experiment: The human gastric cancer strain (SC-2) was subcutaneously transplanted into the back of a BALB/cA-nu mouse and preliminarily proliferated therein. The proliferated strain was extracted, cut into about 2 mm square pieces with scissors in physiological saline, and subcutaneously inoculated to the right axillary region of mice of the same strain, 5 to 6 weeks of age, using a transplantation needle. […] Then, drug administration was initiated from the next day. Each of the test liquids shown in (a) to (e) above was administered orally to the mice in each of the test drug groups using a sonde for oral administration at a dose of 0.1 ml per 10 g body weight once a day for 14 continuous days. In the same manner as the above, the cancer-bearing mice in the control group were subjected to oral administration of only 0.5% HPMC liquid for 14 continuous days.
The tumor volume of each mouse in each group before the initiation of the treatment, on day 3, day 5, day 8 (1 week after), day 11, and day 15 (2 weeks after), i.e., after termination of the administration, was calculated using Equation 1 below, and respective relative tumor volume (RTV) relative to the tumor volume at the time of initiation of the treatment was calculated. In relation to the antitumor effect, the average value of the tumor proliferation inhibition ratio (IR; %) was calculated from the average tumor volume of each treatment group on day 15 (after termination of the treatment) relative to that of the control group on day 15, using Equation 2. […] Along therewith, a weight change ratio was calculated from the body weight of the mice at the time of the termination of the drug administration relative to the body weight of the mice at the time of the initiation of the administration, using Equation 3. […] Tumor volume(mm^3)=(major axis)×(minor axis)^2×½ Equation 1: Tumor proliferation inhibition ratio(IR, %)=[1−(average tumor volume of treatment group)/(average tumor volume of control group)]×100 Equation 2: Average weight change ratio(%)=[(average weight on Day 15)−(average weight on Day 1)]/(average weight on Day 1)×100 Equation 3: […]
The resulting product was stirred with a stirrer at room temperature for about 10 minutes. […] The proliferated strain was extracted, cut into about 2 mm square pieces with scissors in physiological saline, and subcutaneously inoculated to the right axillary region of mice of the same strain, 5 to 6 weeks of age, using a transplantation needle. […] Then, drug administration was initiated from the next day. Each of the test liquids shown in (a) to (c) above was administered orally to the mice in each of the test drug groups using a sonde for oral administration at a dose of 0.1 ml per 10 g body weight once a day for 14 continuous days. In the same manner as the above, the cancer-bearing mice in the control group were subjected to oral administration of only 0.5% HPMC liquid for 14 continuous days.
The tumor volume of each mouse in each group before the initiation of the treatment, on day 3, day 5, day 8 (1 week after), day 11, and day 15 (2 weeks after), i.e., after termination of the administration, was calculated using Equation 1 below, and respective relative tumor volume (RTV) relative to the tumor volume at the time of initiation of the treatment was calculated. In relation to the antitumor effect, the average value of the tumor proliferation inhibition ratio (IR; %) was calculated from the average tumor volume of each treatment group on day 15 (after termination of the treatment) relative to that of the control group on day 15, using Equation 2.

[3] = Conc. 10 μM, 30 min. Incubation, 5-FU 2 μM, Table 6
[4] = Conc. 10 μM, 30 min, Table 3 run with control 60.93
[5] = Conc. 10 μM, 30 min, Table 3 run with control 63.32
[6] = Conc. 100 μM, 30 min. Incubation, 5-FU 2 μM, Table 6
[7] = Conc. 100 μM, 30 min, Table 3 run with control 60.93
[8] = Conc. 100 μM, 30 min, Table 3 run with control 63.32
[9] = Conc. 10 μM, 30 min. Incubation, 5-FU 2 μM, Table 6, read-out: Inhibition (%) of phosphorylation of 5-FU
[10] = Conc. 10 μM, 30 min, Table 3 run with control 60.93, read-out: % Inhibition of 5-FU phosphorylation
[11] = Conc. 10 μM, 30 min, Table 3 run with control 63.32, read-out: % Inhibition of 5-FU phosphorylation
[12] = Conc. 100 μM, 30 min. Incubation, 5-FU 2 μM, Table 6, read-out: Inhibition (%) of phosphorylation of 5-FU
[13] = Conc. 100 μM, 30 min, Table 3 run with control 60.93, read-out: % Inhibition of 5-FU phosphorylation
[14] = Conc. 100 μM, 30 min, Table 3 run with control 63.32, read-out: % Inhibition of 5-FU phosphorylation
[15] = concentration of 100 μM, reaction for 30 minutes, read-out: percent inhibition of intracellular phosphorylation of 5-FU
[16] = concentration of 10 μM, reaction for 30 minutes, read-out: percent inhibition of intracellular phosphorylation of 5-FU

Row | SMILES | RNA Fraction [1, 3] [pmol/1 × 10^7 cells] | F-nucleotides [1, 4] [pmol/1 × 10^7 cells] | F-nucleotides [1, 5] [pmol/1 × 10^7 cells] | RNA Fraction [1, 6] [pmol/1 × 10^7 cells] | F-nucleotides [1, 7] [pmol/1 × 10^7 cells] | F-nucleotides [1, 8] [pmol/1 × 10^7 cells] | inhibition at 10 µM [1, 9] [%] | inhibition at 10 µM [1, 10] [%] | inhibition at 10 µM [1, 11] [%] | inhibition at 100 µM [1, 12] [%] | inhibition at 100 µM [1, 13] [%] | inhibition at 100 µM [1, 14] [%] | inhibition at 100 µM [1, 15] [%] | inhibition at 10 µM [1, 16] [%] | other results
1 | O=C(O)c1cc(O)nc(O)c1 [Citra. A., citrazinic acid, reference compound] | 62.19 | 55.78 | 62.19 | 60.13 | 51.72 | 60.13 | 1.8 | 8.5 | 1.8 | 5 | 15.1 | 5.1 | 5 to 15 |  | 
2 | CCOCn1cc(F)c(=O)n(C(=O)c2cccc(C(=O)Oc3cc(OC(=O)c4cc(O)nc(O)c4)c(Cl)cn3)c2)c1=O [Compound I-2, 3-{3-[4-(2,6-dihydroxyisonicotinoyloxy)-5-chloro-2-pyridyloxycarbonyl]benzoyl}-1-ethoxymethyl-5-fluorouracil] |  | 47.26 |  |  | 28.88 |  |  | 22.4 |  |  | 52.6 |  | 50 to 60 | 20 to 30 | Average weight change (%) ([2]; 15.0 mg/kg/day oral): −1.13%; Tumor proliferation inhibition ratio (%) ([2]; 15.0 mg/kg/day oral): 41.1%; Average weight change (%) ([2]; 22.5 mg/kg/day oral): −4.18%; Tumor proliferation inhibition ratio (%) ([2]; 22.5 mg/kg/day oral): 56.0%; Average weight change (%) ([2]; 30.0 mg/kg/day oral): 1.76%; Tumor proliferation inhibition ratio (%) ([2]; 30.0 mg/kg/day oral): 67.9%
3 | CCOCn1cc(F)c(=O)n(C(=O)c2cccc(C(=O)Oc3cc(OC(=O)c4cc(OC(=O)C5CCCC5)nc(OC(=O)C5CCCC5)c4)c(Cl)cn3)c2)c1=O [Compound I-9, 3-{3-[4-(2,6-dicyclopentanecarbonyloxyisonicotinoyloxy)-5-chloro-2-pyridyloxycarbonyl]benzoyl}-1-ethoxymethyl-5-fluorouracil] | 27.42 |  |  | 23.61 |  |  | 56.7 |  |  | 62.7 |  |  | 56 to 63 | 35 to 57 | BWC (% initial) ([2]; 49.5 mg/kg oral): +4.67 % initial; IR (%) ([2]; 49.5 mg/kg oral, equivalent to 12.5 mg/kg of S-1): 29.5%
4 | CCOCn1cc(F)c(=O)n(C(=O)c2cccc(C(=O)Oc3cc(OC(=O)c4cc(OC(C)=O)nc(OC(C)=O)c4)c(Cl)cn3)c2)c1=O [Compound I-10, 3-{3-[4-(2,6-diacetyloxyisonicotinoyloxy)-5-chloro-2-pyridyloxycarbonyl]benzoyl}-1-ethoxymethyl-5-fluorouracil] |  |  | 40.71 |  |  | 27.62 |  |  | 35.7 |  |  | 56.4 | 50 to 60 | 20 to 30 | Average weight change (%) ([2]; 25.7 mg/kg/day oral): 1.97%; Tumor proliferation inhibition ratio (%) ([2]; 25.7 mg/kg/day oral): 31.9%; Average weight change (%) ([2]; 34.2 mg/kg/day oral): −0.05%; Tumor proliferation inhibition ratio (%) ([2]; 34.2 mg/kg/day oral): 51.0%; Average weight change (%) ([2]; 42.8 mg/kg/day oral): −4.31%; Tumor proliferation inhibition ratio (%) ([2]; 42.8 mg/kg/day oral): 57.7%
5 | CCOCn1cc(F)c(=O)n(C(=O)c2cccc(C(=O)Oc3cc(OC(=O)c4cc(OC(=O)CC)nc(OC(=O)CC)c4)c(Cl)cn3)c2)c1=O [Compound I-11, 3-{3-[4-(2,6-dipropionyloxyisonicotinoyloxy)-5-chloro-2-pyridyloxycarbonyl]benzoyl}-1-ethoxymethyl-5-fluorouracil] | 40.71 |  |  | 27.62 |  |  | 35.7 |  |  | 56.4 |  |  | 56 to 63 | 35 to 57 | BWC (% initial) ([2]; 26.7 mg/kg oral): +1.68 % initial; IR (%) ([2]; 26.7 mg/kg oral, equivalent to 7.5 mg/kg of S-1): 17.0%; BWC (% initial) ([2]; 35.6 mg/kg oral): +1.82 % initial; IR (%) ([2]; 35.6 mg/kg oral, equivalent to 10 mg/kg of S-1): 32.0%; BWC (% initial) ([2]; 44.5 mg/kg oral): −3.94 % initial; IR (%) ([2]; 44.5 mg/kg oral, equivalent to 12.5 mg/kg of S-1): 47.3%
